The results in this text go back to publication PMC4182301, “Design, synthesis and SAR exploration of tri-substituted 1,2,4-triazoles as inhibitors of the annexin A2–S100A10 protein interaction” (Bioorganic & Medicinal Chemistry, 2014).

Where two headings read alike, the source gives them in different places. A value given as a limit tells only on which side of the number the result lay.

The test concerns the target interaction between the AnxA2 N-terminus and S100A10 (Homo sapiens, UniProt P60903). Nature of the test: Fluorescence screening assay (FRET competitive binding, Cy3-AnxA2(Ac1–14) peptide / Cy5-S100A10). The note with it: for pIC50 ± SE / IC50: FRET assay, 12 observations; for IC50: read-out: IC50; for inhibitory activity (in words): truncation of 35 to 5-methyl derivative, and its side chain extension. The protocol:
Assessment of compound activity was performed as described.[35] Briefly, a Cy5-labelled S100A10 tracer was developed and binding of a Cy3-labelled AnxA2(Ac1–14) peptide ligand was assessed using a fluorescence resonance energy transfer readout. Assays were carried out in Nunc black non-treated 384-well plates at 20 °C in 50 μL buffer C. All incubations were performed in quadruplicate. Compounds, peptide and buffer controls were added to the wells in a 10 μL volume in 5% DMSO. Cy5-labelled S100A10 tracer (407 nM) and Cy3-labelled AnxA2(Ac1–14) peptide ligand (1.33 μM) were pre-incubated for 5 min at 20 °C and 40 μL of the preformed complex was then added to the wells and mixed for 10 s to yield a final DMSO concentration of 1%. After 5 min incubation at 20 °C, readings were taken on a Perkin Elmer Envision plate reader by excitation at 488 nm and emission at 695 nm. Fluorescence resonance energy transfer (FRET) was calculated by subtracting the sum of the fluorescence emission of S100A10-Cy5 and AA2(1–14)-Cy3 individually from that measured for the co-incubated partners. Compound binding was calculated as percentage of non-treated control and data were analysed by non-linear regression (dose response—variable slope with bottom and top parameters fixed at 0% and 100%, respectively) using Graphpad Prism Software to determine the IC50 of binding (primary assay).

Chain of interaction between the AnxA2 N-terminus and S100A10 (P60903 whole entry, species assumed, the tested form may be a part): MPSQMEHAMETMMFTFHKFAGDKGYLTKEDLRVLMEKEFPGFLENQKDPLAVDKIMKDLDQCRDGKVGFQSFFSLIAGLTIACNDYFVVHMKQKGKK

Consider `Cc1cc(C)nc(SCc2nnc(SCC(=O)Nc3ccc(C(C)C)cc3)n2-c2ccc(Cl)cc2)n1` [Compound 49, 2-[4-(4-Chloro-phenyl)-5-(4,6-dimethyl-pyrimidin-2-ylsulfanylmethyl)-4H-[1,2,4]triazol-3-ylsulfanyl]-N-(4-isopropyl-phenyl)-acetamide], for which, where the note is “Table 2”, the “pIC50 ± SE” value came out at 4.58 ± 0.04 and the IC50 (usually the concentration that gives 50% inhibition) came out at 27 µM.

With `C=CCn1c(CSc2nc(C)cc(C)n2)nnc1SCC(=O)Nc1ccc(C(C)C)cc1` [Compound 46, 2-[4-Allyl-5-(4,6-dimethyl-pyrimidin-2-ylsulfanylmethyl)-4H-[1,2,4]triazol-3-ylsulfanyl]-N-(4-isopropyl-phenyl)-acetamide], where the note is “Table 2”, the “pIC50 ± SE” value worked out at 5.01 ± 0.03 and the IC50 came to 10 µM.

In the case of `COCCCn1c(CSc2nc(C)cc(C)n2)nnc1SCC(=O)Nc1ccc(C(F)(F)F)cc1` [Compound 51, 2-[5-(4,6-Dimethyl-pyrimidin-2-ylsulfanylmethyl)-4-(3-methoxy-propyl)-4H-[1,2,4]triazol-3-ylsulfanyl]-N-(4-trifluoromethyl-phenyl)-acetamide], where the note is “Table 2”, the “pIC50 ± SE” value was found to be 5.02 ± 0.04 and the half-inhibitory concentration (IC50) turned out to be 10 µM.

Turning to `COc1ccc(-n2c(CSc3nc(C)cc(C)n3)nnc2SCC(=O)Nc2cc(C(F)(F)F)cc(C(F)(F)F)c2)cc1` [Compound 54, N-(3,5-Bis-trifluoromethyl-phenyl)-2-[5-(4,6-dimethyl-pyrimidin-2-ylsulfanylmethyl)-4-(4-methoxy-phenyl)-4H-[1,2,4]triazol-3-ylsulfanyl]-acetamide], under “Table 2”, the “pIC50 ± SE” value is listed as 5.14 ± 0.04 and the half-inhibitory concentration (IC50) worked out at 7 µM.

Regarding `Cc1cc(C)nc(SCc2nnc(SCC(=O)Nc3nccs3)n2Cc2ccco2)n1` [Compound 28, 2-[5-(4,6-Dimethyl-pyrimidin-2-ylsulfanylmethyl)-4-furan-2-ylmethyl-4H-[1,2,4]triazol-3-ylsulfanyl]-N-thiazol-2-yl-acetamide], under “Table 1”, the “pIC50 ± SE” value was 3.89 ± 0.06 and the IC50 was found to be 129 µM.

With `Cc1cc(C)nc(SCc2nnc(SCC(=O)Nc3ccc(C(F)(F)F)cc3)n2Cc2ccco2)n1` [Compound 37, 2-[5-(4,6-Dimethyl-pyrimidin-2-ylsulfanylmethyl)-4-furan-2-ylmethyl-4H-[1,2,4]triazol-3-ylsulfanyl]-N-(4-trifluoromethyl-phenyl)-acetamide], where the note is “Table 1”, the “pIC50 ± SE” value is given as 4.55 ± 0.07 and the IC50 turned out to be 28 µM.

On to `Cc1ccc(NC(=O)CSc2nnc(CSc3nc(C)cc(C)n3)n2Cc2ccco2)c(C)c1` [Compound 34, N-(2,4-Dimethyl-phenyl)-2-[5-(4,6-dimethyl-pyrimidin-2-ylsulfanylmethyl)-4-furan-2-ylmethyl-4H-[1,2,4]triazol-3-ylsulfanyl]-acetamide], for which, where the note is “Table 1”, the “pIC50 ± SE” value came out at 4.83 ± 0.04 and the IC50 amounted to 15 µM.

Consider `C=CCn1c(CSc2nc(C)cc(C)n2)nnc1SCC(=O)Nc1ccc(C)c(C)c1` [Compound 41, 2-[4-Allyl-5-(4,6-dimethyl-pyrimidin-2-ylsulfanylmethyl)-4H-[1,2,4]triazol-3-ylsulfanyl]-N-(3,4-dimethyl-phenyl)-acetamide], for which, under “Table 2”, the “pIC50 ± SE” value turned out to be 4.56 ± 0.03 and the IC50 was determined as 27 µM.

With `COc1ccc(-n2c(CSc3nc(C)cc(C)n3)nnc2SCC(=O)Nc2ccc(Cl)cc2)cc1` [Compound 55, N-(4-Chloro-phenyl)-2-[5-(4,6-dimethyl-pyrimidin-2-ylsulfanylmethyl)-4-(4-methoxy-phenyl)-4H-[1,2,4]triazol-3-ylsulfanyl]-acetamide], for the setting “Table 2”, the “pIC50 ± SE” value is on record as 4.65 ± 0.05 and the IC50 stood at 22 µM.

On to `COc1ccc(NC(=O)CSc2nnc(CSc3nc(C)cc(C)n3)n2-c2ccc(OC)cc2)cc1` [Compound 56, 2-[5-(4,6-Dimethyl-pyrimidin-2-ylsulfanylmethyl)-4-(4-methoxy-phenyl)-4H-[1,2,4]triazol-3-ylsulfanyl]-N-(4-methoxy-phenyl)-acetamide], for which, under “Table 2”, the “pIC50 ± SE” value came to 3.81 ± 0.03 and the IC50 is 154 µM.

Turning to `Cc1ccc(NC(=O)CSc2nnc(C)n2Cc2ccco2)cc1C` [Compound 62, N-(3,4-Dimethyl-phenyl)-2-(4-furan-2-ylmethyl-5-methyl-4H-[1,2,4]triazol-3-ylsulfanyl)-acetamide], the “inhibitory activity (in words)” value is listed as “complete loss of activity”. Where the note is “Table 3”, the “pIC50 ± SE” value is on record as 2.32 ± 0.48 and the IC50 was > 1000 µM.

With `Cc1cccc(NC(=O)CSc2nnc(CSc3nc(C)cc(C)n3)n2Cc2ccco2)c1` [Compound 32, 2-[5-(4,6-Dimethyl-pyrimidin-2-ylsulfanylmethyl)-4-furan-2-ylmethyl-4H-[1,2,4]triazol-3-ylsulfanyl]-N-m-tolyl-acetamide], for the setting “Table 1”, the “pIC50 ± SE” value was determined as 4.89 ± 0.04 and the IC50 worked out at 13 µM.

For the compound `Cc1cc(C)nc(SCc2nnc(SCC(=O)Nc3nc(C)cs3)n2Cc2ccco2)n1` [Compound 29, 2-[5-(4,6-Dimethyl-pyrimidin-2-ylsulfanylmethyl)-4-furan-2-ylmethyl-4H-[1,2,4]triazol-3-ylsulfanyl]-N-(4-methyl-thiazol-2-yl)-acetamide], where the note is “Table 1”, the “pIC50 ± SE” value was 4.53 ± 0.06 and the IC50 stood at 30 µM.

With `Cc1cc(C)nc(SCc2nnc(SCC(=O)Nc3ccc(Cl)cc3)n2Cc2ccco2)n1` [Compound 39, N-(4-Chloro-phenyl)-2-[5-(4,6-dimethyl-pyrimidin-2-ylsulfanylmethyl)-4-furan-2-ylmethyl-4H-[1,2,4]triazol-3-ylsulfanyl]-acetamide], under “Table 1”, the “pIC50 ± SE” value is on record as 4.76 ± 0.03 and the IC50 was 17 µM.

In the case of `Cc1cc(C)nc(SCc2nnc(SCC(=O)Nc3ccc(C(F)(F)F)cc3)n2-c2ccc(Cl)cc2)n1` [Compound 53, 2-[4-(4-Chloro-phenyl)-5-(4,6-dimethyl-pyrimidin-2-ylsulfanylmethyl)-4H-[1,2,4]triazol-3-ylsulfanyl]-N-(4-trifluoromethyl-phenyl)-acetamide], under “Table 2”, the “pIC50 ± SE” value was found to be 5.07 ± 0.03 and the IC50 was determined as 8 µM.

`Cc1ccc(NC(=O)CCSc2nnc(C)n2Cc2ccco2)cc1C` [Compound 63, N-(3,4-Dimethyl-phenyl)-3-(4-furan-2-ylmethyl-5-methyl-4H-[1,2,4]triazol-3-ylsulfanyl)-propionamide]: the “inhibitory activity (in words)” value is listed as “abolished activity”. Besides, where the note is “Table 3”, the “pIC50 ± SE” value was 2.95 ± 0.26 and the half-inhibitory concentration (IC50) is > 1000 µM.

In the case of `COc1ccc(-n2c(CSc3nc(C)cc(C)n3)nnc2SCC(=O)Nc2ccc(C(F)(F)F)cc2)cc1` [Compound 52, 2-[5-(4,6-Dimethyl-pyrimidin-2-ylsulfanylmethyl)-4-(4-methoxy-phenyl)-4H-[1,2,4]triazol-3-ylsulfanyl]-N-(4-trifluoromethyl-phenyl)-acetamide], under “Table 2”, the “pIC50 ± SE” value is reported as 5.35 ± 0.04 and the IC50 is 4 µM. Further, the “fold increase in potency compared to initial hit compound 1a” value (relative to 1a) came out at 10 fold.

For the compound `Cc1cc(C)nc(SCc2nnc(SCC(=O)Nc3ccc(C)c(C)c3)n2-c2ccc(Cl)cc2)n1` [Compound 44, 2-[4-(4-Chloro-phenyl)-5-(4,6-dimethyl-pyrimidin-2-ylsulfanylmethyl)-4H-[1,2,4]triazol-3-ylsulfanyl]-N-(3,4-dimethyl-phenyl)-acetamide], for the setting “Table 2”, the “pIC50 ± SE” value is given as 4.23 ± 0.08 and the IC50 worked out at 59 µM.
